The subject of this assay is E. faecalis MMH594 whole cells (TyrDC). The experiment in a line: Inhibition of L-dopa decarboxylation in E. faecalis whole cells. It is filed as cell-based, Enterococcus faecalis MMH594. The settings on record: for EC50: E. faecalis whole cells / cultures. The method, then:
Thus, a library of commercially available tyrosine and phenylalanine derivatives were evaluated for decarboxylation by Enterococcus faecalis MMH594 whole cells; decarboxylation efficiency of a given tyrosine analog was used to identify favorable aromatic fragments, with high conversion indicating a favorable arene scaffold. […] To quickly assess whether the trend in native decarboxylation activity can be translated to inhibitory activity, we evaluated benzyl aminooxy compounds with similar aromatic elements as inhibitors for L-dopa decarboxylation in E. faecalis MMH594 whole cells (10 μM inhibitor); high L-dopa recovery indicated high inhibitory efficiency. […] In addition, these compounds are either commercially available or can be accessed in a two-step synthetic sequence (European Journal of Medicinal Chemistry 2016, 108, 564-576). As shown, inhibitors without a para-hydroxyphenyl motif are not effective towards L-dopa decarboxylation in whole cells (FIG. 3B). Aminooxy compounds with this structural motif can inhibit L-dopa decarboxylation in E. faecalis cultures at low concentrations.
AFMT analogs were evaluated for their inhibitory effects towards L-dopa decarboxylation using the same protocol as described above. 500 μM L-dopa was incubated anaerobically at 37° C. with E. faecalis MMH594 in the presence of 100 μM inhibitor for 18-24 h. The level of remaining L-dopa was measured by MS/MS and then normalized to the level of L-dopa from a mutant control. […] Since (S)-AFMT is the active AFMT enantiomer, the stereochemical assignments in FIG. 5 assume that the enantiomer with the higher inhibitory activity carries the […] configuration. Chiral configuration will be unambiguously determined via crystallography in the future.

With `NOCc1ccc(O)c(F)c1` [3-fluoro-4-hydroxybenzyl aminooxy], it took 2200 nM to reach a half-maximal effect (EC50).

Molecule `NOCc1ccc(O)cc1` [4-hydroxybenzyl aminooxy] yielded a half-maximal effective concentration (EC50) of 1500 nM.

As to `N[C@@](CF)(Cc1ccc(O)cc1)C(=O)O` [AFMT, α-fluoromethyltyrosine], for the setting “Enterococcus faecalis”, the EC50 was found to be 1400 nM.

Consider `C[C@@](Cc1ccc(O)c(O)c1)(NN)C(=O)O` [carbidopa], for which the “limiting L-dopa decarboxylation by E. faecalis” value (applicant's original study) was “ineffective”.

By EC50 is commonly meant the concentration giving half of the maximal effect. Low readings indicate greater potency, high ones weaker potency.

These data come from patent US20230174460A1, “AFMT ANALOGS AND THEIR USE IN METHODS OF TREATING PARKINSON'S DISEASE” (President and Fellowes of Harvard College, priority 2020, published 2023).
